Measured values: patent US6713475B2, “Tricyclic benzodiazepines as vasopressin receptor antagonists” (Ortho-McNeil Pharmaceutical, Inc., priority 1999, dated 2004)
pIC50: −log10 of the molar value.

How the values were obtained:
human V-1 receptor = target: T1, human V-1 receptor (Homo sapiens, UniProt P37288); test: In vitro recombinant vasopressin receptor binding assay (V1 Bdg), displacement of 3H-arginine vasopressin; conditions: for inhibition at 0.1 µM: read-out: V1 Bdg (% inh, 0.1 uM)
T1 construct: expressed in transfected cells; host or cells: HEK-293
Protocol: (§1) In vitro Recombinant Vasopressin Receptor Binding Assay
(§2) Compounds were assessed for their ability to displace ^3H-arginine vasopressin from the human V-1 or V-2 receptor in HEK-293 cells. Assay buffer is 50 mM Tris-Cl, 5 mM MgCl2, 0.1% BSA (pH 7.5) containing 5 ug/ml of aprotinin, leupeptin, pepstatin, 50 ug/ml bacitracin, and 1 mM Pefabloc. ^3H-vasopressin is ^3H-arginine-8-vasopressin (68.5 Ci/mmol, final concentration in assay is 0.65-0.75 nM). Into wells of 96-well round bottom polypropylene plates were added buffer, test compound, membrane (containing cloned human V-1 or V-2 receptor), and ^3H-vasopressin. The reaction plates were allowed to sit at room temperature for one hour. The samples were filtered through Unifilter GF/C plates (presoaked in 0.3 polyethyleneimine). The plates were washed 5 times with cold physiological saline containing 0.05% Tween 20. After drying, the bottom of the filter plates were sealed and 0.025 ml of Microscint-20 was added to each filter. The top of the plate was sealed, and the plate was counted. Non-specific binding was determined by the addition of 1.25 uM arginine-8-vasopressin in those wells.

V2 = V2 (Homo sapiens, UniProt P30518); test: In vitro recombinant vasopressin receptor binding assay (V2 Bdg), displacement of 3H-arginine vasopressin; set-up: expressed in transfected cells; host or cells: HEK-293; conditions: for V2 Bdg % inh: 0.1 uM, printed in parentheses in place of IC50; for pIC50: membrane with cloned human V-2 receptor (HEK-293)
Protocol: as §1
as §2, with “Assay buffer is 50 mM Tris-Cl, 5 mM MgCl2, 0.1% BSA (pH 7.5) containing 5 ug/ml of aprotinin, leupeptin, pepstatin, 50 ug/ml bacitracin, and 1 mM Pefabloc. ^3H-vasopressin is ^3H-arginine-8-vasopressin (68.5 Ci/mmol, final concentration in assay is 0.65-0.75 nM).” left out, “counted.” for “counted. Non-specific binding was determined by the addition of 1.25 uM arginine-8-vasopressin in those wells.”

T1 sequence (P37288 whole entry): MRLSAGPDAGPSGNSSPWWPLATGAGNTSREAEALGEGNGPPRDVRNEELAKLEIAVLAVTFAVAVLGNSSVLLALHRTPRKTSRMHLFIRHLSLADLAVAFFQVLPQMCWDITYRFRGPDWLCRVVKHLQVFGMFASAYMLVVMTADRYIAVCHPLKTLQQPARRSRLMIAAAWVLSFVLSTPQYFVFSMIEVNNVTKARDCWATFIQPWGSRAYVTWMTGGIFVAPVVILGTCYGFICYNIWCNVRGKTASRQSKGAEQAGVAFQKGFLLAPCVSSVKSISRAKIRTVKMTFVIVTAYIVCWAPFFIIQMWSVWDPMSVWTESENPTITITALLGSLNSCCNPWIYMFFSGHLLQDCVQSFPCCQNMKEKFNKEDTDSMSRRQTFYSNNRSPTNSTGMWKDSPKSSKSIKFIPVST

| pIC50 (V2) | inhibition at 0.1 µM (human V-1 receptor) | Compound | V1 Bdg % inh (human V-1 receptor; 1 uM) | V2 Bdg % inh (V2) | further results |
| --- | --- | --- | --- | --- | --- |
| – | – | Cc1ccccc1C(=O)Nc1ccc(C(=O)N2CC3CN(C)CCN3Cc3ccccc32)c(Cl)c1 (racemic) [Compound 61, (RS)-2-Methyl-N-[3-chloro-4-(1,3,4,12a-tetrahydro-2-methyl-6H-[1,4]pyrazino[4,3-a][1,4]-benzodiazepin-11(12H)-yl-carbonyl)phenyl]benzamide] | (21%/1 uM) | (28%/0.I uM) | – |
| 7.70 | – | O=C(Nc1ccc(C(=O)N2CC3CSCCN3Cc3cc(F)ccc32)cc1)c1ccccc1-c1ccccc1 (racemic) [Compound 32, (RS)-2-Phenyl-N-[4-(8-fluoro-1,3,4,12a-tetrahydro-6H-[1,4]thiazino[4,3-a][1,4]-benzodiazepin-11(12H)-yl-carbonyl)phenyl]benzamide] | – | – | inhibition at 10 µM (human V-1 receptor; 10 uM, read-out: V1 Bdg % inh): 44% |
| – | – | COc1ccc(-c2ccccc2C(=O)Nc2ccc(C(=O)N3CC4CN(C)CCN4Cc4ccccc43)c(Cl)c2)cc1 (racemic) [Compound 67, (RS)-2-(4-Methoxy-phenyl)-N-[3-chloro-4-(1,3,4,12a-tetrahydro-2-methyl-6H-[1,4]pyrazino[4,3-a][1,4]-benzodiazepin-11(12H)-yl-carbonyl)phenyl]benzamide] | (14%/1 uM) | (36%/0.1 uM) | – |
| – | – | COc1cccc(-c2ccccc2C(=O)Nc2ccc(C(=O)N3CC4CN(C)CCN4Cc4ccccc43)c(Cl)c2)c1 (racemic) [Compound 68, (RS)-2-(3-Methoxy-phenyl)-N-[3-chloro-4-(1,3,4,12a-tetrahydro-2-methyl-6H-[1,4]pyrazino[4,3-a][1,4]-benzodiazepin-11(12H)-yl-carbonyl)phenyl]benzamide] | (7%/1 uM) | (37%/0.1 uM) | – |
| – | – | (RS)-2-Phenyl-N-[4-(9-chloro-1,3,4,12a-tetrahydro-6H-[1,4]thiazino[4,3-a][1,4]-benzodiazepin-11(12H)-yl-carbonyl)phenyl]benzamide [Compound 34] | – | (41%/0.1 uM) | V1 Bdg % inh (human V-1 receptor; 10 uM): 1%/10 uM |
| – | – | Cc1c(F)cccc1C(=O)Nc1ccc(C(=O)N2CC3CN(C)CCN3Cc3ccccc32)c(Cl)c1 (racemic) [Compound 102, (RS)-2-Methyl-3-fluoro-N-[3-chloro-4-(1,3,4,12a-tetrahydro-2-methyl-6H-[1,4]pyrazino[4,3-a][1,4]-benzodiazepin-11(12H)-yl-carbonyl)phenyl]benzamide] | (12%/1 uM) | (20%/0.1 uM) | – |
| – | – | Cc1ccccc1C(=O)Nc1ccc(C(=O)N2CC3COCCN3Cc3ccccc32)cc1 (racemic) [Compound 26, (RS)-2-Methyl-N-[4-(1,3,4,12a-tetrahydro-6H-[1,4]oxazino[4,3-a][1,4]-benzodiazepin-11(12H)-yl-carbonyl)phenyl]benzamide] | – | (65%/0.1 uM) | V1 Bdg (% inh, 0.1 uM) (human V-1 receptor): 58% |
| 7.43 | – | CN1CCN2Cc3ccccc3N(C(=O)c3ccc(NC(=O)c4cc(F)ccc4-c4ccccc4)cc3Cl)CC2C1 (racemic) [Compound 100, (RS)-2-Phenyl-5-fluoro-N-[3-chloro-4-(1,3,4,12a-tetrahydro-2-methyl-6H-[1,4]pyrazino[4,3-a][1,4]-benzodiazepin-11(12H)-yl-carbonyl)phenyl]benzamide] | – | – | inhibition at 1 µM (human V-1 receptor; 1 uM, read-out: V1 Bdg % inh): 6%; inhibition at 0.1 µM (V2; read-out: V2 Bdg % inh): 72% |
| 7.96 | 18% | Cc1csc(-c2cc(F)ccc2C(=O)Nc2ccc(C(=O)N3CC4COCCN4Cc4ccccc43)c(Cl)c2)c1 (racemic) [Compound 9, (RS)-2-(4-Methyl-2-thienyl)-4-fluoro-N-[3-chloro-4-(1,3,4,12a-tetrahydro-6H-[1,4]oxazino[4,3-a][1,4]-benzodiazepin-11(12H)-yl-carbonyl)phenyl]benzamide] | – | – | – |
| 7.80 | 34% | Cc1ccccc1C(=O)Nc1ccc(C(=O)N2CC3COCCN3Cc3ccccc32)c(Cl)c1 (racemic) [Compound 24, (RS)-2-Methyl-N-[3-chloro-4-(1,3,4,12a-tetrahydro-6H-[1,4]oxazino[4,3-a][1,4]-benzodiazepin-11(12H)-yl-carbonyl)phenyl]benzamide] | – | – | – |
| 7.85 | 74% | Cc1ccc(-c2ccccc2C(=O)Nc2ccc(C(=O)N3CC4COCCN4Cc4ccccc43)c(F)c2)cc1 (racemic) [Compound 30, (RS)-2-(4-Methyl-phenyl)-N-[3-fluoro-4-(1,3,4,12a-tetrahydro-6H-[1,4]oxazino[4,3-a][1,4]-benzodiazepin-11(12H)-yl-carbonyl)phenyl]benzamide] | – | – | – |
| 7.37 | – | COc1ccc2c(c1)CN1CCSCC1CN2C(=O)c1ccc(NC(=O)c2ccccc2-c2ccccc2)cc1 (racemic) [Compound 31, (RS)-2-Phenyl-N-[4-(8-methoxy-1,3,4,12a-tetrahydro-6H-[1,4]thiazino[4,3-a][1,4]-benzodiazepin-11(12H)-yl-carbonyl)phenyl]benzamide] | – | – | inhibition at 10 µM (human V-1 receptor; 10 uM, read-out: V1 Bdg % inh): 27% |
| – | – | Cc1cc(C(=O)N2CC3CN(C)CCN3Cc3ccccc32)ccc1NC(=O)c1ccccc1-c1ccccc1 (racemic) [Compound 78, (RS)-2-Phenyl-N-[2-methyl-4-(1,3,4,12a-tetrahydro-2-methyl-6H-[1,4]pyrazino[4,3-a][1,4]-benzodiazepin-11(12H)-yl-carbonyl)phenyl]benzamide] | (2%/1 uM) | (5%/0.1 uM) | – |
| – | – | (RS)-3,5-Dimethyl-N-[3-chloro-4-(1,3,4,12a-tetrahydro-6H-[1,4]thiazino[4,3-a][1,4]-benzodiazepin-11(12H)-yl-carbonyl)phenyl]benzamide [Compound 41] | – | (38%/0.1 uM) | V1 Bdg (% inh, 0.1 uM) (human V-1 receptor): 5% |
| 7.89 | 69% | COc1cc(C(=O)N2CC3COCCN3Cc3ccccc32)ccc1NC(=O)c1ccccc1-c1ccccc1 (racemic) [Compound 15, (RS)-2-Phenyl-N-[2-methoxy-4-(1,3,4,12a-tetrahydro-6H-[1,4]oxazino[4,3-a][1,4]-benzodiazepin-11(12H)-yl-carbonyl)phenyl]benzamide] | – | – | – |
| 7.74 | 9% | O=C(Nc1ccc(C(=O)N2CC3CSCCN3Cc3cc(F)ccc32)c(Cl)c1)c1ccccc1-c1ccccc1 (racemic) [Compound 38, (RS)-2-Phenyl-N-[3-chloro-4-(8-fluoro-1,3,4,12a-tetrahydro-6H-[1,4]thiazino[4,3-a][1,4]-benzodiazepin-11 (12H)-yl-carbonyl)phenyl]benzamide] | – | – | – |
| – | – | Cc1ccccc1C(=O)Nc1ccc(C(=O)N2CC3CN(C)CCN3Cc3ccccc32)cc1 (racemic) [Compound 86, (RS)-2-Methyl-N-[4-(1,3,4,12a-tetrahydro-2-methyl-6H-[1,4]pyrazino[4,3-a][1,4]-benzodiazepin-11(12H)-yl-carbonyl)phenyl]benzamide] | (33%/1 uM) | (1%/0.1 uM) | – |
| – | – | Cc1ccc(-c2ccccc2C(=O)Nc2ccc(C(=O)N3CC4CN(C)CCN4Cc4ccccc43)c(C(F)(F)F)c2)cc1 (racemic) [Compound 76, (RS)-2-(4-Methyl-phenyl)-N-[3-trifluoromethyl-4-(1,3,4,12a-tetrahydro-2-methyl-6H-[1,4]pyrazino[4,3-a][1,4]-benzodiazepin-11(12H)-yl-carbonyl)phenyl]benzamide] | (18%/1 uM) | (50%/0.1 uM) | – |
| 8.05 | 29% | O=C(Nc1ccc(C(=O)N2C[C@H]3COCCN3Cc3ccccc32)c(Cl)c1)c1ccccc1-c1ccc(O)cc1 [Compound 5, (S)-2-(4-Hydroxyphenyl)-N-[3-chloro-4-(1,3,4,12a-tetrahydro-6H-[1,4]oxazino[4,3-a][1,4]-benzodiazepin-11(12H)-yl-carbonyl)phenyl]benzamide] | – | – | – |
| – | – | COc1cc(C(=O)N2CC3CN(C)CCN3Cc3ccccc32)ccc1NC(=O)c1ccccc1-c1ccccc1 (racemic) [Compound 72, (RS)-2-Phenyl-N-[2-methoxy-4-(1,3,4,12a-tetrahydro-2-methyl-6H-[1,4]pyrazino[4,3-a][1,4]-benzodiazepin-11(12H)-yl-carbonyl)phenyl]benzamide] | (6%/1 uM) | (48%/0.1 uM) | – |
| 8.05 | 36% | COc1cc(NC(=O)c2ccccc2-c2ccccc2)ccc1C(=O)N1CC2COCCN2Cc2ccccc21 (racemic) [Compound 14, (RS)-2-Phenyl-N-[3-methoxy-4-(1,3,4,12a-tetrahydro-6H-[1,4]oxazino[4,3-a][1,4]-benzodiazepin-11(12H)-yl-carbonyl)phenyl]benzamide] | – | – | – |
